# Experimental data taken from publication PMC13031153 (Acta Pharmaceutica Sinica. B, 2025).
# Like-named read-outs stand apart in the source and are kept apart here.
# What was measured:
# hκ-OR = conditions: cited from earlier work
# [1] = system: WT mδ-OR, mδ-OR-Q190^ECL2H, mδ-OR-Q201^ECL2H, mδ-OR-S45^N-terminalH, mδ-OR-E112^ECL1H; format: cell-based, mouse
# mδ-OR mutants = format: cell-based, mouse
# mμ-OR mutants = format: cell-based, mouse; conditions: mμ-OR mutations at D^3.32, Y^3.33, V^5.43, I^6.51 (Fig. 5J)
# δ/μ^N-terminal Chimera = format: cell-based, mouse
# μ-OR over δ-OR = conditions: cited from earlier work
# mδ-OR and its variants = test: Maximal K+ current density evoked by saturating full agonist, mδ-OR variants; format: cell-based, mouse
# δ-OR = conditions: cited from earlier work
# [2] = molecular target: mouse δ-opioid receptor, wild type (mouse) (UniProt P32300); test: MST
# [3] = molecular target: mδ-OR-3M-PSA(28–30)-LGG (mouse) (UniProt P32300); test: MST
# mδ-OR-K108^2.63N (mouse) = mδ-OR-K108^2.63N (mouse) (UniProt P32300); test: MST
# [4] = molecular target: mδ-OR-K108^2.63N-L125^3.29I-R291^ECL3A (mouse) (UniProt P32300); test: MST
# mδ-OR-R291^ECL3A (mouse) = mδ-OR-R291^ECL3A (mouse) (UniProt P32300); test: MST
# mδ-OR-R292^ECL3E (mouse) = mδ-OR-R292^ECL3E (mouse) (UniProt P32300); test: MST
molecule,measurement,setting,value
CC(C)[C@@H](CN1CC[C@@](C)(c2cccc(O)c2)[C@@H](C)C1)NC(=O)[C@H]1Cc2ccc(O)cc2CN1 [JDTic],selectivity for hκ-OR,hκ-OR,more than 1000 fold
CN1CC[C@]23c4c5ccc(O)c4O[C@H]2[C@@H](O)C=C[C@H]3[C@H]1C5 [morphine],effect of ZnCl2 on agonist activation (control),"[1]; 1 mmol/L ZnCl2, WT mδ-OR, mδ-OR-Q190^ECL2H, mδ-OR-Q201^ECL2H",did not alter
same,effect of ZnCl2 on agonist activation (control),"[1]; 3 mmol/L ZnCl2, mδ-OR-S45^N-terminalH, mδ-OR-E112^ECL1H",did not alter
same,change in potency for mδ-OR,mδ-OR mutants; mutations of K108^2.63 to Ala or Asn,increased the potency
same,agonist-induced activation of mutants,"mδ-OR mutants; mδ-OR mutations at D^3.32, Y^3.33, V^5.43, I^6.51 (Fig. 5H)",significant reductions
same,agonist-induced activation of mutants,mμ-OR mutants,significant reductions
CC[C@H](C)[C@H](NC(=O)[C@H](C)NC(=O)[C@H](CC(N)=O)NC(=O)[C@H](CCCCN)NC(=O)[C@H](Cc1ccccc1)NC(=O)[C@H](CC(C)C)NC(=O)[C@@H](NC(=O)[C@@H](NC(=O)[C@H](CC(C)C)NC(=O)[C@@H]1CCCN1C(=O)[C@@H](NC(=O)[C@H](CCC(N)=O)NC(=O)[C@H](CO)NC(=O)[C@H](CCCCN)NC(=O)[C@H](CCC(=O)O)NC(=O)[C@H](CO)NC(=O)[C@@H](NC(=O)[C@H](CCSC)NC(=O)[C@H](Cc1ccccc1)NC(=O)CNC(=O)CNC(=O)[C@@H](N)Cc1ccc(O)cc1)[C@@H](C)O)[C@@H](C)O)C(C)C)[C@@H](C)O)C(=O)N[C@H](C(=O)N[C@@H](CCCCN)C(=O)N[C@@H](CC(N)=O)C(=O)N[C@@H](C)C(=O)N[C@@H](Cc1ccc(O)cc1)C(=O)N[C@@H](CCCCN)C(=O)N[C@@H](CCCCN)C(=O)NCC(=O)N[C@@H](CCC(=O)O)C(=O)O)[C@@H](C)CC [β-endorphin],EC50,δ/μ^N-terminal Chimera,10.3 ± 0.9 nM
same,preference between μ-OR and δ-OR,μ-OR over δ-OR,no discernible preference
Leu-enkephalin,maximum currents vs wild-type receptor,mδ-OR and its variants,statistically indistinguishable from wild-type receptor
deltorphin,selectivity for δ-OR,δ-OR,more than 1000 fold
endomorphin-1 (peptide),Kd,[2],2940 nM
same,Kd,[3],1.03 nM
same,Kd,mδ-OR-K108^2.63N (mouse),299 nM
same,Kd,[4],9.42 nM
same,Kd,mδ-OR-R291^ECL3A (mouse),344 nM
same,Kd,mδ-OR-R292^ECL3E (mouse),408 nM
endomorphin-2 [EM-2],μ-OR selectivity over δ-OR,μ-OR over δ-OR,> 1500 fold
